Measured values from patent publication US20240317721A1, “PYRAZOLYL DERIVATIVES AS INHIBITORS OF THE KRAS MUTANT PROTEIN” (NOVARTIS AG, priority 2021, published 2024).

These molecules were tested against KRasG12C (M1-K169, biotinylated on the N-terminus) (Homo sapiens (Human), UniProt P01116, G12C) (assay: Covalent competition assay: scintillation proximity assay (SPA) quantifying covalent modification of KRASG12C). Conditions: competition with radiolabeled covalent probe (Compound B/Compound A), 2 hours incubation, 10 nM KRasG12C.
Type: binding
Outline: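 Test compounds compete with a radiolabeled covalent probe for modification of N-terminally biotinylated KRasG12C(M1-K169):GDP, final 10 nM protein, 25 nM radio-ligand, 475 nM unlabelled ligand, 2 h with agitation in 20 mM Tris-HCl pH 7.5, 150 mM NaCl, 0.1 mM MgCl2, 0.01% Tween-20.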
In the case of C=CC(=O)N1CC2(CC(n3nc(N4CCN(C5COC5)CC45CCC5)c(-c4c(C)c(Cl)cc5[nH]ncc45)c3C)C2)C1 (single isomer, unassigned) [Example 79a, 1-(6-(4-(6-chloro-5-methyl-1H-indazol-4-yl)-5-methyl-3-(8-(oxetan-3-yl)-5,8-diazaspiro[3.5]nonan-5-yl)-1H-pyrazol-1-yl)-2-azaspiro[3.3]heptan-2-yl)prop-2-en-1-one], the IC50 is reported as > 5000 nM. C=CC(=O)N1CC2(CC(n3nc(N4CCC(n5ccnc5)CC4(C)C)c(-c4c(Cl)c(C)cc5[nH]ncc45)c3C)C2)C1 (single isomer, unassigned) [Example 44b, 1-(6-(3-(4-(1H-imidazol-1-yl)-2,2-dimethylpiperidin-1-yl)-4-(5-chloro-6-methyl-1H-indazol-4-yl)-5-methyl-1H-pyrazol-1-yl)-2-azaspiro[3.3]heptan-2-yl)prop-2-en-1-one] was tested, and the IC50 was 20 nM. C=CC(=O)N1CC2(CC(n3nc(N4CCN(C5COC5)CC4(C)C)c(-c4c(Cl)c(Cl)cc5[nH]ncc45)c3C)C2)C1 (single isomer, unassigned) [Example 73b, 1-(6-(4-(5,6-dichloro-1H-indazol-4-yl)-3-(2,2-dimethyl-4-(oxetan-3-yl)piperazin-1-yl)-5-methyl-1H-pyrazol-1-yl)-2-azaspiro[3.3]heptan-2-yl)prop-2-en-1-one] gave an IC50 of 15 nM. C=CC(=O)N1CC2(CC(n3nc(N4CCN(C[C@@H]5COCCO5)CC4(C)C)c(-c4c(Cl)c(Cl)cc5[nH]ncc45)c3C)C2)C1 (single isomer, unassigned) [Example 172b] was tested, and the IC50 was 15 nM. Molecule C=CC(=O)N1CC2(CC(n3nc(N4CC[C@@H](CN5C[C@H](O)C[C@H]5COC)CC4(C)C)c(-c4c(Cl)c(Cl)cc5[nH]ncc45)c3C)C2)C1 (single isomer, unassigned) [Example 286b] has an IC50 of 7 nM. Work on C=CC(=O)N1CC2(CC(n3nc(N4CCC(N(CC)C5COC5)CC4(C)C)c(-c4c(Cl)c(Cl)cc5[nH]ncc45)c3C)C2)C1 (single isomer, unassigned) [Example 61b, 1-(6-(4-(5,6-dichloro-1H-indazol-4-yl)-3-(4-(ethyl(oxetan-3-yl)amino)-2,2-dimethylpiperidin-1-yl)-5-methyl-1H-pyrazol-1-yl)-2-azaspiro[3.3]heptan-2-yl)prop-2-en-1-one] yielded an IC50 of 6 nM. In the case of C=CC(=O)N1CC2(CC(n3nc(N4CCN(CCOC)CC4(C)C)c(-c4c(Cl)c(C)cc5[nH]ncc45)c3C)C2)C1 (single isomer, unassigned) [Example 170a, 1-(6-(4-(5-chloro-6-methyl-1H-indazol-4-yl)-3-(4-(2-methoxyethyl)-2,2-dimethylpiperazin-1-yl)-5-methyl-1H-pyrazol-1-yl)-2-azaspiro[3.3]heptan-2-yl)prop-2-en-1-one], the IC50 is reported as > 50000 nM. Molecule C=CC(=O)N1CC2(CC(n3nc(N4CC[C@@H](CN5CCO[C@@H](CO)C5)CC4(C)C)c(-c4c(Cl)c(Cl)cc5[nH]ncc45)c3C)C2)C1 (single isomer, unassigned) [Example 247a] has an IC50 of 1400 nM. Molecule C=CC(=O)N1CC2(CC(n3nc(N4CCN(C(C)=O)CC4)c(-c4c(Cl)ccc5[nH]ncc45)c3C)C2)C1C (single isomer, unassigned) [Example 195a, 1-(6-(3-(4-Acetylpiperazin-1-yl)-4-(5-chloro-1H-indazol-4-yl)-5-methyl-1H-pyrazol-1-yl)-1-methyl-2-azaspiro[3.3]heptan-2-yl)prop-2-en-1-one] has an IC50 of 10400 nM. With C=CC(=O)N1CC2(CC(n3nc(N4CCN(CC(C)(C)O)CC45CCC5)c(-c4c(Cl)c(C)cc5[nH]ncc45)c3C)C2)C1 (single isomer, unassigned) [Example 160b, 1-(6-(4-(5-Chloro-6-methyl-1H-indazol-4-yl)-3-(8-(2-hydroxy-2-methylpropyl)-5,8-diazaspiro[3.5]nonan-5-yl)-5-methyl-1H-pyrazol-1-yl)-2-azaspiro[3.3]heptan-2-yl)prop-2-en-1-one] the IC50 was 27 nM. C=CC(=O)N1CC2(CC(n3nc(N4CCC5(CN(C6COC6)C5)CC4(C)C)c(-c4c(Cl)c(Cl)cc5[nH]ncc45)c3C)C2)C1 (single isomer, unassigned) [Example 92a, 1-(6-(4-(5,6-dichloro-1H-indazol-4-yl)-3-(6,6-dimethyl-2-(oxetan-3-yl)-2,7-diazaspiro[3.5]nonan-7-yl)-5-methyl-1H-pyrazol-1-yl)-2-azaspiro[3.3]heptan-2-yl)prop-2-en-1-one] was tested, and the IC50 was 2100 nM. C=CC(=O)N1CC2(CC(n3nc(N4CCc5cnn(C)c5C4)c(-c4c(Cl)c(C)cc5[nH]ncc45)c3C)C2)C1 (single isomer, unassigned) [Example 14b, 1-(6-(4-(5-chloro-6-methyl-1H-indazol-4-yl)-5-methyl-3-(1-methyl-1,4,5,7-tetrahydro-6H-pyrazolo[3,4-c]pyridin-6-yl)-1H-pyrazol-1-yl)-2-azaspiro[3.3]heptan-2-yl)prop-2-en-1-one] gave an IC50 of 364 nM. For C=CC(=O)N1CC2(CC(n3nc(N4CC[C@@H](CN5CC6(COCCN6C)C5)CC4(C)C)c(-c4c(Cl)c(Cl)cc5[nH]ncc45)c3C)C2)C1 (single isomer, unassigned) [Example 291b], the IC50 was 8 nM. In the case of C=CC(=O)N1CC2(CC(n3nc(N4CCN(C5CCOCC5)CC45CCC5)c(-c4c(Cl)c(C)cc5[nH]ncc45)c3C)C2)C1 (single isomer, unassigned) [Example 130a, 1-(6-(4-(5-Chloro-6-methyl-1H-indazol-4-yl)-5-methyl-3-(8-(tetrahydro-2H-pyran-4-yl)-5,8-diazaspiro[3.5]nonan-5-yl)-1H-pyrazol-1-yl)-2-azaspiro[3.3]heptan-2-yl)prop-2-en-1-one], the IC50 is reported as > 5000 nM. C=CC(=O)N1CC2(CC(n3nc(N4CC[C@@H](CN5CCN(C(=O)NC)CC5)CC4(C)C)c(-c4c(Cl)c(Cl)cc5[nH]ncc45)c3C)C2)C1 (single isomer, unassigned) [Example 289b] showed an IC50 of 10 nM. With C=CC(=O)N1CC2(CC(n3nc(N4CCC(N(C)C5COC5)CC45CCC5)c(-c4c(Cl)c(C)cc5[nH]nc(N)c45)c3C)C2)C1 (single isomer, unassigned) [Example 115b, 1-(6-(4-(3-amino-5-chloro-6-methyl-1H-indazol-4-yl)-5-methyl-3-(8-(methyl(oxetan-3-yl)amino)-5-azaspiro[3.5]nonan-5-yl)-1H-pyrazol-1-yl)-2-azaspiro[3.3]heptan-2-yl)prop-2-en-1-one] the IC50 was 246 nM. In the case of C=CC(=O)N1CC2(CC(n3nc(N4CC[C@@H](CN(CCO)CCOC)CC4(C)C)c(-c4c(Cl)c(Cl)cc5[nH]ncc45)c3C)C2)C1 (single isomer, unassigned) [Example 253b], the IC50 is reported as 8 nM. In the case of C=CC(=O)N1CC2(CC(n3nc(N4CCN(C5COC5)C5COCC54)c(-c4c(Cl)c(C)cc5[nH]ncc45)c3C)C2)C1 (single isomer, unassigned) [Example 137b, 1-(6-(4-(5-chloro-6-methyl-1H-indazol-4-yl)-5-methyl-3-((4aS*,7aS*)-4-(oxetan-3-yl)hexahydrofuro[3,4-b]pyrazin-1(2H)-yl)-1H-pyrazol-1-yl)-2-azaspiro[3.3]heptan-2-yl)prop-2-en-1-one], the IC50 is reported as 975 nM. With C=CC(=O)N1CC2(CC(n3nc(N4CCN(C5COC5)CC45CCC5)c(-c4c(Cl)c(C)cc5[nH]nc(N)c45)c3C)C2)C1 (single isomer, unassigned) [Example 114b, 1-(6-(4-(3-amino-5-chloro-6-methyl-1H-indazol-4-yl)-5-methyl-3-(8-(oxetan-3-yl)-5,8-diazaspiro[3.5]nonan-5-yl)-1H-pyrazol-1-yl)-2-azaspiro[3.3]heptan-2-yl)prop-2-en-1-one] the IC50 was 337 nM. With C=CC(=O)N1CC2(CC(n3nc(N4CCN(c5cnn(C)c5)CC4(C)C)c(-c4c(Cl)c(C)cc5[nH]ncc45)c3C)C2)C1 (single isomer, unassigned) [Example 193a, 1-(6-(4-(5-Chloro-6-methyl-1H-indazol-4-yl)-3-(2,2-dimethyl-4-(1-methyl-1H-pyrazol-4-yl)piperazin-1-yl)-5-methyl-1H-pyrazol-1-yl)-2-azaspiro[3.3]heptan-2-yl)prop-2-en-1-one] the IC50 was 20800 nM. C=CC(=O)N1CC2(CC(n3nc(N4CC[C@@H](CN5CC6(CCN(C(C)=O)C6)C5)CC4(C)C)c(-c4c(Cl)c(Cl)cc5[nH]ncc45)c3C)C2)C1 (single isomer, unassigned) [Example 268b] showed an IC50 of 7 nM. In the case of C=CC(=O)N1CC2(CC(n3nc(N4CCN(C5COC5)C[C@@]4(C)CC)c(-c4c(Cl)c(C)cc5[nH]ncc45)c3C)C2)C1 (single isomer, unassigned) [Example 143a], the IC50 is reported as > 5000 nM. C=CC(=O)N1CC2(CC(n3nc(N4CCC(CN5CCOCC5)CC4(C)COC)c(-c4c(Cl)c(Cl)cc5[nH]ncc45)c3C)C2)C1 (single isomer, unassigned) [Example 221a, 1-(6-(4-(5,6-dichloro-1H-indazol-4-yl)-3-(2-(methoxymethyl)-2-methyl-4-(morpholinomethyl)piperidin-1-yl)-5-methyl-1H-pyrazol-1-yl)-2-azaspiro[3.3]heptan-2-yl)prop-2-en-1-one] was tested, and the IC50 was 5 nM. In the case of C=CC(=O)N1CC2(CC(n3nc(N4CC[C@@H](CN5C[C@@H]6C[C@H]5CS6(=O)=O)CC4(C)C)c(-c4c(Cl)c(Cl)cc5[nH]ncc45)c3C)C2)C1 (single isomer, unassigned) [Example 249a], the IC50 is reported as > 5000 nM. For C=CC(=O)N1CC2(CC(n3nc(N4CCN(C(C)(C)C(=O)OC)CC45CCC5)c(-c4c(Cl)c(C)cc5[nH]ncc45)c3C)C2)C1 (single isomer, unassigned) [Example 180a, methyl 2-(5-(1-(2-acryloyl-2-azaspiro[3.3]heptan-6-yl)-4-(5-chloro-6-methyl-1H-indazol-4-yl)-5-methyl-1H-pyrazol-3-yl)-5,8-diazaspiro[3.5]nonan-8-yl)-2-methylpropanoate], the IC50 was > 5000 nM. With C=CC(=O)N1CC2(CC(n3nc(N4CC[C@@H](CN5CCP(C)(=O)CC5)CC4(C)C)c(-c4c(Cl)c(Cl)cc5[nH]ncc45)c3C)C2)C1 (single isomer, unassigned) [Example 269b] the IC50 was 6 nM.
